Laboratory results from patent US11866430B2, “Naphthyridinone compounds useful as T cell activators” (priority 2018, dated 2024).
Read-outs that look alike come from different tables or passages of the source.

Tests used:
[1] = system: OT-1 antigen-specific CD8+ T cells with MC38 tumor cells; test: Murine Cytotoxic T Lymphocyte Assay (IFN-γ); format: cell-based, mouse
[2] = system: Jurkat AP1-luciferase Reporter; test: DGK AP1-Reporter Assay; format: cell-based
Method in brief: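 Jurkat cells carrying a lentiviral AP1-luciferase reporter received 30 nl compound per well for 20 min at 37 °C and 5% CO2. They were then stimulated for 6 h with anti-CD3 solution at 0.4 μg/mL; reference wells received 4 μg/mL and unstimulated wells medium only. Readout was Steady-Glo luciferase luminescence (RLU).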

human DGKζ = human DGKζ (Homo sapiens (Human), UniProt Q13574); test: DGKζ assay (detergent/lipid micelle substrate); format: biochemical
Method in brief: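 Full-length human DGKα or DGKζ (C-terminal His tag, Sf9-expressed; 20 nM 4× stock) was preincubated 10 min at room temperature with PS/DAG octyl glucoside micelles in MOPS pH 7.5 buffer with MgCl2, CaCl2 and DTT. It was then started with ATP (300 uM addition) and run for 1 hr, with ADP-Glo luminescence read-out.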

[3] = read-out: msCTL INF-γ IC50, murine CTL IFN-γ (table title reads INF-γ Whole Blood Normalized Agonist EC50)
[4] = read-out: API-Luciferase Reporter IC50, Table 3
[5] = DGKζ IC50, detergent/lipid micelle substrate
[6] = Mus musculus, MC-38, read-out: msCTL INF-γ IC50, murine CTL IFN-γ (table title reads INF-γ Whole Blood Normalized Agonist EC50)
[7] = Homo sapiens, Jurkat, read-out: API-Luciferase Reporter IC50, Table 3
[8] = detergent/lipid micelle substrate, read-out: DGKζ IC50
[9] = read-out: DGKAP1 Lucif Reporter IC50, Table 4
[10] = Homo sapiens, Jurkat, read-out: DGKAP1 Lucif Reporter IC50, Table 4

Sequence of human DGKζ (Q13574 other isoform, or with tags, fused parts or gaps): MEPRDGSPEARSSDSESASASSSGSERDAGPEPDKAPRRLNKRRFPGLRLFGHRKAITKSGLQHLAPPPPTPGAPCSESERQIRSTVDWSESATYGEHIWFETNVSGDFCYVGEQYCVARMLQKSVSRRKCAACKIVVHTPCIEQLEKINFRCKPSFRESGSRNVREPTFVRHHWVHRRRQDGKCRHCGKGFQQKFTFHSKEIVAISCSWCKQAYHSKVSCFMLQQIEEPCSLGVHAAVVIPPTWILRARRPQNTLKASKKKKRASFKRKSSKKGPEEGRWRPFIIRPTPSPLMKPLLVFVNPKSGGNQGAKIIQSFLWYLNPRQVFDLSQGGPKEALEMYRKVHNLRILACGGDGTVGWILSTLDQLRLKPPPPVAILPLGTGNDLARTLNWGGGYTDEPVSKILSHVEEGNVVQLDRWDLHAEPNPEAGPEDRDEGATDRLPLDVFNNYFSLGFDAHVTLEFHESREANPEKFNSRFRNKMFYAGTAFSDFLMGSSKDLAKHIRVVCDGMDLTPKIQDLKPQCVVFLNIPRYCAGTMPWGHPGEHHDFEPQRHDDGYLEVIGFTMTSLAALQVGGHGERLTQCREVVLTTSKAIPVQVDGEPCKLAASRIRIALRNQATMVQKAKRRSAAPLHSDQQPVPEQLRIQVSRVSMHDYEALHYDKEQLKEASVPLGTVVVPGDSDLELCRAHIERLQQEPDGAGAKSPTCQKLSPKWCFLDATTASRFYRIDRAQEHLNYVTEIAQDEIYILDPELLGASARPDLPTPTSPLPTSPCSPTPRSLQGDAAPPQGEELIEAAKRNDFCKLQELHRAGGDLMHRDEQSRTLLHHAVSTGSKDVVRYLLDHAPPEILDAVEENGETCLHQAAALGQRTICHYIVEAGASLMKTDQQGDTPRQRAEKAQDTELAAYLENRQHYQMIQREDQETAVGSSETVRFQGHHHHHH

| Compound | IC50 [1, 3] | IC50 [2, 4] | IC50 (human DGKζ; [5]) | IC50 [1, 6] | IC50 [2, 7] | IC50 (human DGKζ; [8]) | IC50 [2, 9] | IC50 [2, 10] |
| --- | --- | --- | --- | --- | --- | --- | --- | --- |
| C#CCn1c(=O)c([N+](=O)[O-])c(N2CCN(C(C)c3ccc(F)cc3)CC2)c2nc(C#N)ccc21 (single isomer, unassigned) [Example 137, 8-(4-(1-(4-fluorophenyl)ethyl)piperazin-1-yl)-7-nitro-6-oxo-5-(prop-2-yn-1-yl)-5,6-dihydro-1,5-naphthyridine-2-carbonitrile] | 0.23 µM | 0.19 µM | 4.8 µM |  |  |  |  |  |
| Cn1c(=O)c([N+](=O)[O-])c(N2CCN(CC(O)c3ccc(F)cc3)CC2)c2nc(C#N)ccc21 (stereo not shown) [Example 36, 8-{4-[2-(4-fluorophenyl)-2-hydroxyethyl]piperazin-1-yl}-5-methyl-7-nitro-6-oxo-5,6-dihydro-1,5-naphthyridine-2-carbonitrile] |  |  |  | 10 µM | 1.6 µM | 68 µM |  |  |
| COc1cc(C#N)ccc1CN1CCN(c2c(C#N)c(=O)n(C)c3ccc(Cl)nc23)CC1 [Example 424, 6-chloro-4-{4-[(4-cyano-2-methoxyphenyl)methyl]piperazin-1-yl}-1-methyl-2-oxo-1,2-dihydro-1,5-naphthyridine-3-carbonitrile] |  |  |  | 10 µM | 10 µM | > 240 µM |  |  |
| Cc1ccc(CN2CCN(c3c(C#N)c(=O)n(C)c4ccc(Br)nc34)CC2)c(O)c1 [Example 372, 6-bromo-4-{4-[(2-hydroxy-4-methylphenyl)methyl]piperazin-1-yl}-1-methyl-2-oxo-1,2-dihydro-1,5-naphthyridine-3-carbonitrile] |  |  |  | 2.55 µM | 0.14 µM | 60 µM |  |  |
| COc1ccccc1C(c1ccc(F)cc1)N1CCN(c2c(C#N)c(=O)n(C)c3ccc(Br)nc23)CC1 (single isomer, unassigned) [Example 13, 6-bromo-4-{4-[(4-fluorophenyl)(2-methoxyphenyl)methyl]piperazin-1-yl}-1-methyl-2-oxo-1,2-dihydro-1,5-naphthyridine-3-carbonitrile] |  |  |  | 0.64 µM | 1.3 µM | > 240 µM |  |  |
| Cn1c(=O)c(C#N)c(N2CCN(C(c3ccc(F)cc3)C3CCC3)CC2)c2nc(Cl)ccc21 (single isomer, unassigned) [Example 383, 6-chloro-4-{4-[cyclobutyl(4-fluorophenyl)methyl]piperazin-1-yl}-1-methyl-2-oxo-1,2-dihydro-1,5-naphthyridine-3-carbonitrile] |  |  |  | 10 µM |  |  | 10 µM |  |
| COc1cc(F)ccc1C(c1ccc(F)cc1)N1CCN(c2c(C#N)c(=O)n(C)c3ccc(Br)nc23)CC1 (single isomer, unassigned) [Example 17, 6-bromo-4-{4-[(4-fluoro-2-methoxyphenyl)(4-fluorophenyl)methyl]piperazin-1-yl}-1-methyl-2-oxo-1,2-dihydro-1,5-naphthyridine-3-carbonitrile] |  |  |  | 0.19 µM | 0.35 µM | 180 µM |  | 1.33 µM |
| COc1cc(F)ccc1C(c1ccc(F)cc1)N1CCN(c2c([N+](=O)[O-])c(=O)n(C)c3ccc(C#N)nc23)CC1 (single isomer, unassigned) [Example 124, 8-(4-((4-fluoro-2-methoxyphenyl)(4-fluorophenyl)methyl)piperazin-1-yl)-5-methyl-7-nitro-6-oxo-5,6-dihydro-1,5-naphthyridine-2-carbonitrile] |  |  | 0.9 µM | 0.04 µM | 0.1 µM |  |  | 0.57 µM |
| C#CCn1c(=O)c([N+](=O)[O-])c(N2CCN(C(c3ccc(F)cc3)c3ccc(F)cc3O)CC2)c2nc(C#N)ccc21 (single isomer, unassigned) [Example 121, 8-(4-((4-fluoro-2-hydroxyphenyl)(4-fluorophenyl)methyl)piperazin-1-yl)-7-nitro-6-oxo-5-(prop-2-yn-1-yl)-5,6-dihydro-1,5-naphthyridine-2-carbonitrile] |  | 0.34 µM |  | 0.05 µM |  | 0.18 µM |  |  |
| Cc1ccc(CN2CCN(c3c(C#N)c(=O)n(C)c4ccc(Cl)nc34)CC2)cc1 [Example 386, 6-chloro-1-methyl-4-{4-[(4-methylphenyl)methyl]piperazin-1-yl}-2-oxo-1,2-dihydro-1,5-naphthyridine-3-carbonitrile] |  |  |  | 0.59 µM | 0.05 µM | 190 µM |  |  |
| C#CCn1c(=O)c([N+](=O)[O-])c(N2CCN(C(C)c3ccc(F)cc3)CC2)c2nc(C#N)ccc21 (single isomer, unassigned) [Example 136, 8-(4-(1-(4-fluorophenyl)ethyl)piperazin-1-yl)-7-nitro-6-oxo-5-(prop-2-yn-1-yl)-5,6-dihydro-1,5-naphthyridine-2-carbonitrile] | 0.09 µM |  | 0.87 µM |  | 0.23 µM |  |  |  |
| Cn1c(=O)c([N+](=O)[O-])c(N2CCN(Cc3cccc4ccccc34)CC2)c2nc(C#N)ccc21 [Example 415, 5-methyl-8-{4-[(naphthalen-1-yl)methyl]piperazin-1-yl}-7-nitro-6-oxo-5,6-dihydro-1,5-naphthyridine-2-carbonitrile] |  |  |  | 10 µM |  |  |  | 0.42 µM |
| C#CCn1c(=O)c([N+](=O)[O-])c(N2CCN(C(CC)c3ccc(F)cc3)CC2)c2nc(C#N)ccc21 (single isomer, unassigned) [Example 141, 8-{4-[1-(4-fluorophenyl)propyl]piperazin-1-yl}-7-nitro-6-oxo-5-(prop-2-yn-1-yl)-5,6-dihydro-1,5-naphthyridine-2-carbonitrile] |  |  |  | 0.29 µM | 0.24 µM | 8.9 µM |  |  |
| Cc1ccc(CN2CCN(c3c(C#N)c(=O)n(C)c4ccc(Cl)nc34)CC2)c(F)c1 [Example 423, 6-chloro-4-{4-[(2-fluoro-4-methylphenyl)methyl]piperazin-1-yl}-1-methyl-2-oxo-1,2-dihydro-1,5-naphthyridine-3-carbonitrile] |  |  |  | 0.7 µM | 1.88 µM | > 81 µM |  |  |
| Cc1ccc2c(n1)c(N1CCN(Cc3cccc(Cl)c3O)CC1)c(C#N)c(=O)n2C [Example 389, 4-{4-[(3-chloro-2-hydroxyphenyl)methyl]piperazin-1-yl}-1,6-dimethyl-2-oxo-1,2-dihydro-1,5-naphthyridine-3-carbonitrile] |  |  |  | 5.05 µM | 0.65 µM | 130 µM |  |  |
| Cc1cccc(CN2CCN(c3c(C#N)c(=O)n(C)c4ccc(Cl)nc34)CC2)c1O [Example 391, 6-chloro-4-{4-[(2-hydroxy-3-methylphenyl)methyl]piperazin-1-yl}-1-methyl-2-oxo-1,2-dihydro-1,5-naphthyridine-3-carbonitrile] |  |  |  | 0.73 µM | 0.07 µM | 36 µM |  |  |
| CCCCn1c(=O)c([N+](=O)[O-])c(N2CCN(C(c3ccccc3)c3ccccc3)CC2)c2ncccc21 [Example 177, 4-(4-benzhydrylpiperazin-1-yl)-1-butyl-3-nitro-1,5-naphthyridin-2(1H)-one] |  |  |  | 10 µM |  |  |  | 10 µM |
| CC(c1ccc(F)cc1)N1CCN(c2c([N+](=O)[O-])c(=O)n(C)c3ccc(C#N)nc23)CC1 (single isomer, unassigned) [Example 44, 8-(4-(1-(4-fluorophenyl)ethyl)piperazin-1-yl)-5-methyl-7-nitro-6-oxo-5,6-dihydro-1,5-naphthyridine-2-carbonitrile] |  |  |  | 0.13 µM | 0.35 µM | 8.9 µM |  |  |
| C#CCn1c(=O)c([N+](=O)[O-])c(N2CCN(C(c3ccc(F)cc3)C3CC3)CC2)c2nc(C#N)ccc21 (single isomer, unassigned) [Example 143, 8-(4-(cyclopropyl(4-fluorophenyl)methyl)piperazin-1-yl)-7-nitro-6-oxo-5-(prop-2-yn-1-yl)-5,6-dihydro-1,5-naphthyridine-2-carbonitrile] |  |  |  | 1.41 µM |  | 4.2 µM |  | 1.28 µM |
| Cc1ccc2c(n1)c(N1CCN(C(C)c3ccc(F)cc3)CC1)c(Br)c(=O)n2C (stereo not shown) [Example 224, 3-bromo-4-(4-(1-(4-fluorophenyl)ethyl)piperazin-1-yl)-1,6-dimethyl-1,5-naphthyridin-2(1H)-one] |  |  |  | 10 µM |  | > 240 µM |  | 10 µM |
| Cn1c(=O)c(C#N)c(N2CCN(C(CC(C)(C)C)c3ccc(F)cc3)CC2)c2nc(Cl)ccc21 (single isomer, unassigned) [Example 378, 6-chloro-4-{4-[1-(4-fluorophenyl)-3,3-dimethylbutyl]piperazin-1-yl}-1-methyl-2-oxo-1,2-dihydro-1,5-naphthyridine-3-carbonitrile] |  |  |  | 10 µM |  |  | 10 µM |  |
